# From US20170050957A1, “4-AMINO-6-(HETEROCYCLIC)PICOLINATES AND 6-AMINO-2-(HETEROCYCLIC)PYRIMIDINE-4-CARBOXYLATES AND THEIR USE AS HERBICIDES” (Dow AgroSciences LLC, priority 2013, published 2017)
# Read-outs that look alike come from different tables or passages of the source.
# Columns and labels:
# [1] = test system: Key Broadleaf Weed and Crop Species; assay: Post-emergent Test II herbicidal activity (Table 15); format: in vivo; conditions: post-emergence, 336 h, 14 d; for pest or weed control at 35 g/ha: 35 g ai/ha; for pest or weed control at 70 g/ha: 70 g ai/ha; for pest or weed control at 140 g/ha: 140 g ai/ha
# Method in brief: (§1)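 Plants at first-second true leaf stage, grown 7-21 d in greenhouse (~15 h photoperiod, 23-29 °C day), were track-sprayed at 187 L/ha with compound in acetone/DMSO/water/isopropanol/crop oil/Triton X-155 at a high rate plus 1/2× to 1/16× dilutions. Injury scored visually after 14 d versus untreated plants, 0 (none) to 100% (complete kill).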
# [2] = test system: Key Grass and Sedge Weeds as well as Grass Crops; assay: Post-emergent Test II herbicidal activity (Table 16); format: in vivo; conditions: post-emergence, 336 h, 14 days after application; for pest or weed control at 35 g/ha: 35 g ai/ha; for pest or weed control at 70 g/ha: 70 g ai/ha; for pest or weed control at 140 g/ha: 140 g ai/ha
# Method in brief: as §1
# [3] = Abutilon theophrasti, velvetleaf (Abutilon theophrasti), read-out: Visual Growth Reduction (%) 14 Days After Application, ABUTH
# [4] = Amaranthus retroflexus, redroot pigweed (Amaranthus retroflexus), read-out: Visual Growth Reduction (%) 14 Days After Application, AMARE
# [5] = Brassica napus, oilseed rape, canola (Brassica napus), read-out: Visual Growth Reduction (%) 14 Days After Application, BRSNN
# [6] = Chenopodium album, lambsquarters (Chenopodium album), read-out: Visual Growth Reduction (%) 14 Days After Application, CHEAL
# [7] = Euphorbia heterophylla, wild poinsettia (Euphorbia heterophylla), read-out: Visual Growth Reduction (%) 14 Days After Application, EPHHL
# [8] = Helianthus annuus, sunflower (Helianthus annuus), read-out: Visual Growth Reduction (%) 14 Days After Application, HELAN
# [9] = Cyperus esculentus, yellow nutsedge (Cyperus esculentus), read-out: Visual Growth Reduction (%) 14 Days After Application CYPES
# [10] = Echinochloa crus-galli, barnyardgrass (Echinochloa crus-galli), read-out: Visual Growth Reduction (%) 14 Days After Application ECHCG
# [11] = Oryza sativa, rice (Oryza sativa), read-out: Visual Growth Reduction (%) 14 Days After Application ORYSA
# [12] = Setaria faberi, giant foxtail (Setaria faberi), read-out: Visual Growth Reduction (%) 14 Days After Application SETFA
# [13] = Triticum aestivum, wheat, spring (Triticum aestivum), read-out: Visual Growth Reduction (%) 14 Days After Application TRZAS
# [14] = Zea mays, maize, corn (Zea mays), read-out: Visual Growth Reduction (%) 14 Days After Application ZEAMX
SMILES,"pest or weed control at 35 g/ha [1, 3] [%]","pest or weed control at 70 g/ha [1, 3] [%]","pest or weed control at 140 g/ha [1, 3] [%]","pest or weed control at 35 g/ha [1, 4] [%]","pest or weed control at 70 g/ha [1, 4] [%]","pest or weed control at 140 g/ha [1, 4] [%]","pest or weed control at 35 g/ha [1, 5] [%]","pest or weed control at 70 g/ha [1, 5] [%]","pest or weed control at 140 g/ha [1, 5] [%]","pest or weed control at 35 g/ha [1, 6] [%]","pest or weed control at 70 g/ha [1, 6] [%]","pest or weed control at 140 g/ha [1, 6] [%]","pest or weed control at 35 g/ha [1, 7] [%]","pest or weed control at 70 g/ha [1, 7] [%]","pest or weed control at 140 g/ha [1, 7] [%]","pest or weed control at 35 g/ha [1, 8] [%]","pest or weed control at 70 g/ha [1, 8] [%]","pest or weed control at 140 g/ha [1, 8] [%]",melting point [°C],"pest or weed control at 35 g/ha [2, 9] [%]",further results
Cc1c(-c2ccc3ccsc3c2)nc(C(=O)O)c(Cl)c1N [Compound 3.19],0 to 29,0 to 29,60 to 74,60 to 74,95 to 100,75 to 84,0 to 29,0 to 29,0 to 29,60 to 74,60 to 74,75 to 84,0 to 29,0 to 29,0 to 29,85 to 94,85 to 94,85 to 94,157 to 162,0 to 29,"pest or weed control at 70 g/ha [2, 9]: 0 to 29%; pest or weed control at 140 g/ha [2, 9]: 0 to 29%; pest or weed control at 35 g/ha [2, 10]: 0 to 29%; pest or weed control at 70 g/ha [2, 10]: 0 to 29%; pest or weed control at 140 g/ha [2, 10]: 0 to 29%; pest or weed control at 35 g/ha [2, 11]: 0 to 29%; pest or weed control at 70 g/ha [2, 11]: 0 to 29%; pest or weed control at 140 g/ha [2, 11]: 0 to 29%; pest or weed control at 35 g/ha [2, 12]: 0 to 29%; pest or weed control at 70 g/ha [2, 12]: 0 to 29%; pest or weed control at 140 g/ha [2, 12]: 0 to 29%; pest or weed control at 35 g/ha [2, 13]: 0 to 29%; pest or weed control at 70 g/ha [2, 13]: 0 to 29%; pest or weed control at 140 g/ha [2, 13]: 0 to 29%; pest or weed control at 35 g/ha [2, 14]: 0 to 29%; pest or weed control at 70 g/ha [2, 14]: 0 to 29%; pest or weed control at 140 g/ha [2, 14]: 0 to 29%"
COC(=O)c1nc(-c2ccc3ccsc3c2)nc(N)c1OC [Compound 3.20],0 to 29,0 to 29,0 to 29,0 to 29,60 to 74,60 to 74,30 to 44,60 to 74,60 to 74,85 to 94,95 to 100,95 to 100,75 to 84,95 to 100,95 to 100,75 to 84,85 to 94,85 to 94,143 to 145,30 to 44,"pest or weed control at 70 g/ha [2, 9]: 30 to 44%; pest or weed control at 140 g/ha [2, 9]: 85 to 94%; pest or weed control at 35 g/ha [2, 10]: 0 to 29%; pest or weed control at 70 g/ha [2, 10]: 45 to 59%; pest or weed control at 140 g/ha [2, 10]: 60 to 74%; pest or weed control at 35 g/ha [2, 11]: 0 to 29%; pest or weed control at 70 g/ha [2, 11]: 0 to 29%; pest or weed control at 140 g/ha [2, 11]: 0 to 29%; pest or weed control at 35 g/ha [2, 12]: 0 to 29%; pest or weed control at 70 g/ha [2, 12]: 0 to 29%; pest or weed control at 140 g/ha [2, 12]: 60 to 74%; pest or weed control at 35 g/ha [2, 13]: 0 to 29%; pest or weed control at 70 g/ha [2, 13]: 0 to 29%; pest or weed control at 140 g/ha [2, 13]: 30 to 44%; pest or weed control at 35 g/ha [2, 14]: 0 to 29%; pest or weed control at 70 g/ha [2, 14]: 75 to 84%; pest or weed control at 140 g/ha [2, 14]: 85 to 94%"
